Laboratory results published in patent US8362000B2, “Azetidinyl diamides as monoacylglycerol lipase inhibitors” (Janssen Pharmaceutica NV, priority 2009, dated 2013).
Positions count from the first letter of the chain named. Where two headings read alike, the source gives them in different places.

Key:
[1] = molecular target: T1, MGL (Rattus norvegicus, UniProt Q8R431); experiment: 2-AG accumulation assay in rat brain homogenate; type: biochemical; conditions: rat brain homogenate, 2-AG accumulation as percent of vehicle; for 2-AG accumulation, % of vehicle control at 10 µM: compound 10 μM, read-out: Rat Brain 2AG % VehCntrl (%) @ 10 μM; for 2-AG accumulation, % of vehicle control at 1 µM: compound 1 μM, read-out: Rat Brain 2AG % VehCntrl (%) @ 1 μM
T1 construct: one g rat brain was homogenized using a Polytron homogenizer; from tissue; host or cells: rat brain homogenate
T1 sequence (Q8R431 1-303): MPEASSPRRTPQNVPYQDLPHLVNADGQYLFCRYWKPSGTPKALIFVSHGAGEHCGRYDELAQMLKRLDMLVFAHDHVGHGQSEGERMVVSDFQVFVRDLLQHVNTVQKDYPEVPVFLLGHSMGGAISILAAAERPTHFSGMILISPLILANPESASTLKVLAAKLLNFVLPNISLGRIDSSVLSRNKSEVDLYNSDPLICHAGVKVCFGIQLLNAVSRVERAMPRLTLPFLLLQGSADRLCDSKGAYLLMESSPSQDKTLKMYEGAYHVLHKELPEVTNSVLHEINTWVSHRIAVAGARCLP

[2] = molecular target: T2, purified wild type MGL (wt-MGLL 6H-11-313) (Homo sapiens, UniProt Q99685)
T2 sequence (Q99685 1-303): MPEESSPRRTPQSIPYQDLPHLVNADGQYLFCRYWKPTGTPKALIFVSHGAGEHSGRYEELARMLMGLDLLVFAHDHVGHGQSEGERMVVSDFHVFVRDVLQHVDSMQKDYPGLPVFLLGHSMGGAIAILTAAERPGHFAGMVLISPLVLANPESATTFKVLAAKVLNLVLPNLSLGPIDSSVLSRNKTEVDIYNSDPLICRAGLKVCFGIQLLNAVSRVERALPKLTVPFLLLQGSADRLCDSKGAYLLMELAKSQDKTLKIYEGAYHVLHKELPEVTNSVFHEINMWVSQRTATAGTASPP

[3] = molecular target: T3, mutant MGL (Homo sapiens, UniProt Q99685, L169S/L176S); experiment: MGL ThermoFluor assay - mutant; type: binding
T3 sequence (Q99685 1-303 L169S/L176S): T2 sequence (Q99685 1-303) with L169S, L176S

[4] = ThermoFluor thermal stability binding assay, read-out: MGL mutant ThermoFluor Kd
[5] = ThermoFluor concentration-response, read-out: MGL mutant ThermoFluor Kd
[6] = ThermoFluor, compound concentration measured by qNMR, read-out: MGL mutant ThermoFluor qKd (μM) (using qNMR conc.)

## O=C(c1nccs1)N1CC(N2CCN(C(=O)c3ccc(-c4ccccc4)cc3)C(c3ccccc3)C2)C1 (stereo not drawn) [Cpd 43, 1-(Biphenyl-4-ylcarbonyl)-2-phenyl-4-[1-(1,3-thiazol-2-ylcarbonyl)azetidin-3-yl]piperazine]
[1]
  2-AG accumulation, % of vehicle control at 10 µM: 215%
[2]
  IC50: 1260 nM

## O=C(c1ccccc1)N1CCN(C2CN(C(=O)c3ccc(-c4ccccc4C(F)(F)F)cc3)C2)CC1 [Cpd 72, 1-(Phenylcarbonyl)-4-(1-{[2′-(trifluoromethyl)biphenyl-4-yl]carbonyl}azetidin-3-yl)piperazine]
[1]
  2-AG accumulation, % of vehicle control at 10 µM: 334%
[2]
  IC50: 326 nM

## Cc1nc(-c2ccccc2)sc1C(=O)N1CC(N2CCN(C(=O)c3nccs3)CC2)C1 [Cpd 133, 1-{1-[(4-Methyl-2-phenyl-1,3-thiazol-5-yl)-carbonyl]azetidin-3-3yl}-4-(1,3-thiazol-2-ylcarbonyl)piperazine]
[1]
  2-AG accumulation, % of vehicle control at 10 µM: 623%
[2]
  IC50: 67.3 nM

## O=C(c1cccc(-c2ccccc2C(F)(F)F)c1)N1CC(N2CCN(C(=O)c3nccs3)CC2)C1 [Cpd 148, 1-(1,3-Thiazol-2-ylcarbonyl)-4-(1-{[2′-(trifluoromethyl)biphenyl-3-yl]carbonyl}azetidin-3-yl)piperazine]
[1]
  2-AG accumulation, % of vehicle control at 10 µM: 744%
[2]
  IC50: < 5 nM

## O=C(c1ccc(-c2ccc(Cl)c(Cl)c2)cc1)N1CC(N2CCN(C(=O)c3nccs3)CC2)C1 [Cpd 175, 1-{1-[(3′,4′-Dichlorobiphenyl-4-yl)carbonyl]azetidin-3-yl}-4-(1,3-thiazol-2-ylcarbonyl)piperazine]
[1]; compound 0.1 μM, read-out: Rat Brain 2AG % VehCntrl (%) @ 0.1 μM
  2-AG accumulation, % of vehicle control at 0.1 µM: 330%
[1]
  2-AG accumulation, % of vehicle control at 1 µM: 706%
[2]
  IC50: < 5 nM

## O=C(c1ccccc1)N1CCN(C2CN(C(=O)c3sc4cc(F)ccc4c3Cl)C2)CC1 [Cpd 543]
[1]
  2-AG accumulation, % of vehicle control at 1 µM: 158%
[3]; [4]
  Kd: 0.038 µM

## O=C(c1ccccc1)N1CCN(C2CN(C(=O)c3ccc(COc4cccc(Cl)c4)cc3)C2)CC1 [Cpd 548]
[1]
  2-AG accumulation, % of vehicle control at 1 µM: 280%
[3]; [5]
  Kd: 0.062 µM

## O=C(c1ccccc1)N1CCN(C2CN(C(=O)c3ccc(-c4ccccc4)cc3Cl)C2)CC1 [Cpd 612]
[1]
  2-AG accumulation, % of vehicle control at 1 µM: 106%
[3]; [5]
  Kd: 0.078 µM

## Cc1cc(C(=O)N2CC(N3CCN(C(=O)c4ccccc4)CC3)C2)ccc1-c1ccccc1 [Cpd 613]
[1]
  2-AG accumulation, % of vehicle control at 1 µM: 165%
[3]; [5]
  Kd: 0.051 µM

## O=C(c1ccccc1)N1CCN(C2CN(C(=O)c3ccc(-c4ccccc4)cc3F)C2)CC1 [Cpd 614]
[1]
  2-AG accumulation, % of vehicle control at 1 µM: 87%
[3]; [5]
  Kd: 0.066 µM

## COc1cc(C(=O)N2CC(N3CCN(C(=O)c4ccccc4)CC3)C2)ccc1-c1ccccc1 [Cpd 615]
[1]
  2-AG accumulation, % of vehicle control at 1 µM: 123%
[3]; [5]
  Kd: 0.097 µM

## O=C(/C=C/c1ccc(SC(F)(F)F)cc1)N1CC(N2CCN(C(=O)c3cscn3)CC2)C1 [Cpd 648]
[1]
  2-AG accumulation, % of vehicle control at 1 µM: 126%
[3]; [5]
  Kd: 0.146 µM

## CC(C)(C)OC(=O)N1CCC(c2ccc(C(=O)N3CC(N4CCN(C(=O)c5cscn5)CC4)C3)cc2)CC1 [Cpd 903]
[1]
  2-AG accumulation, % of vehicle control at 1 µM: 908%
[3]; [4]
  Kd: 0.078 µM

## COc1cncc(Oc2ccc(C(=O)N3CC(N4CCN(C(=O)c5nccs5)CC4)C3)cc2)c1 [Cpd 904]
[1]
  2-AG accumulation, % of vehicle control at 1 µM: 392%
[3]; [5]
  Kd: 0.633 µM

## O=C(c1cscn1)N1CC(N2CCN(C(=O)c3cc4cc(C(F)(F)F)ccc4s3)C(c3ccccc3)C2)C1 (stereo not drawn) [Cpd 905, 2-Phenyl-4-[1-(1,3-thiazol-4-ylcarbonyl)azetidin-3-yl]-1-{[5-(trifluoromethyl)-1-benzothiophen-2-yl]carbonyl}piperazine]
[1]
  2-AG accumulation, % of vehicle control at 1 µM: 119%
[3]; [5]
  Kd: 0.044 µM

## O=C(c1cscn1)N1CCN(C2CN(C(=O)c3cc4cc(C(F)(F)F)ccc4s3)C2)CC1 [Cpd 908]
[1]
  2-AG accumulation, % of vehicle control at 1 µM: 217%
[3]; [4]
  Kd: 0.093 µM

## O=C(c1ccc(Oc2ccccn2)c(F)c1)N1CC(N2CCN(C(=O)c3nccs3)CC2)C1 [Cpd 909]
[1]
  2-AG accumulation, % of vehicle control at 1 µM: 144%
[3]; [5]
  Kd: 0.325 µM

## O=C(c1cscn1)N1CCN(C2CN(C(=O)c3sc4cc(F)ccc4c3Cl)C2)CC1 [Cpd 929]
[1]
  2-AG accumulation, % of vehicle control at 1 µM: 301%
[3]; [4]
  Kd: 0.02 µM

## O=C(c1nccs1)N1CCN(C2CN(C(=O)c3sc4cc(F)ccc4c3Cl)C2)CC1 [Cpd 930]
[1]
  2-AG accumulation, % of vehicle control at 1 µM: 807%
[3]; [4]
  Kd: 0.005 µM

## O=C(c1ccc(CSc2cccc(Cl)c2)cc1)N1CC(N2CCN(C(=O)c3cscn3)CC2)C1 [Cpd 956]
[1]
  2-AG accumulation, % of vehicle control at 1 µM: 514%
[3]; [5]
  Kd: 0.081 µM

## O=C(c1ccc(OCc2cccc(Cl)c2)cc1)N1CC(N2CCN(C(=O)c3cscn3)CC2)C1 [Cpd 960]
[1]
  2-AG accumulation, % of vehicle control at 1 µM: 896%
[3]; [4]
  Kd: 0.036 µM

## Cc1nc(COc2ccc(Cl)cc2)sc1C(=O)N1CC(N2CCN(C(=O)c3nccs3)CC2)C1 [Cpd 965]
[1]
  2-AG accumulation, % of vehicle control at 1 µM: 591%
[3]; [5]
  Kd: 0.035 µM

## O=C(c1ccc(CNc2cccc(Cl)c2)cc1)N1CC(N2CCN(C(=O)c3cscn3)CC2)C1 [Cpd 969]
[1]
  2-AG accumulation, % of vehicle control at 1 µM: 515%
[3]; [5]
  Kd: 0.069 µM

## O=C(c1ccc(OCc2cccc(Br)n2)cc1)N1CC(N2CCN(C(=O)c3nccs3)CC2)C1 [Cpd 983]
[1]
  2-AG accumulation, % of vehicle control at 1 µM: 194%
[3]; [4]
  Kd: 0.019 µM

## O=C(c1ccc(C(F)(F)c2ccccc2)cc1)N1CC(N2CCN(C(=O)c3nccs3)CC2)C1 [Cpd 986, 1-[1-({4-[Difluoro(phenyl)methyl]phenyl}carbonyl)azetidin-3-yl]-4-(1,3-thiazol-2-ylcarbonyl)piperazine]
[1]
  2-AG accumulation, % of vehicle control at 1 µM: 626%
[3]; [5]
  Kd: 0.005 µM

## O=C(c1ccc(OCc2cccc(Br)n2)cc1)N1CC(N2CCN(C(=O)c3cscn3)CC2)C1 [Cpd 987]
[1]
  2-AG accumulation, % of vehicle control at 1 µM: 320%
[3]; [4]
  Kd: 0.327 µM

## O=C(c1ccc2c(cnn2-c2cccc(F)c2)c1)N1CC(N2CCN(C(=O)c3nccs3)CC2)C1 [Cpd 1110]
[1]
  2-AG accumulation, % of vehicle control at 1 µM: 807%
[3]; [6]
  Kd: 0.01 µM

## N#Cc1cccc(-n2ccc3cc(C(=O)N4CC(N5CCN(C(=O)c6nccs6)CC5)C4)ccc32)c1 [Cpd 1113]
[1]
  2-AG accumulation, % of vehicle control at 1 µM: 819%
[3]; [6]
  Kd: 0.01 µM

## O=C(c1ccc2nc(-c3cccc(F)c3)sc2c1)N1CC(N2CCN(C(=O)c3nccs3)CC2)C1 [Cpd 1131]
[1]
  2-AG accumulation, % of vehicle control at 1 µM: 563%
[3]; [4]
  Kd: 0.016 µM

## O=C(c1ccc2c(ccn2-c2ncc(F)cn2)c1)N1CC(N2CCN(C(=O)c3nccs3)CC2)C1 [Cpd 1147, 1-(5-Fluoropyrimidin-2-yl)-5-({3-[4-(1,3-thiazol-2-ylcarbonyl)piperazin-1-yl]azetidin-1-yl}carbonyl)-1H-indole]
[1]
  2-AG accumulation, % of vehicle control at 1 µM: 892%
[3]; [5]
  Kd: 0.003 µM

## Cc1oc(-c2ccccc2)cc1C(=O)N1CC(N2CCN(C(=O)c3nccs3)CC2)C1 [Cpd 1378]
[1]
  2-AG accumulation, % of vehicle control at 1 µM: 493%
[3]; [4]
  Kd: 0.025 µM

## O=C(c1nccs1)N1CCN(C2CN(C(=O)c3cc(-c4ccccc4)oc3C(F)(F)F)C2)CC1 [Cpd 1379]
[1]
  2-AG accumulation, % of vehicle control at 1 µM: 282%
[3]; [4]
  Kd: 0.042 µM

## Cc1nc(-c2cccc(Cl)c2)sc1C(=O)N1CC(N2CCN(C(=O)c3cscn3)CC2)C1 [Cpd 1381]
[1]
  2-AG accumulation, % of vehicle control at 1 µM: 604%
[3]; [4]
  Kd: 0.083 µM

## O=C(c1ccc2oc(-c3ccccc3)nc2c1)N1CC(N2CCN(C(=O)c3cscn3)CC2)C1 [Cpd 1382, 2-Phenyl-5-({3-[4-(1,3-thiazol-4-ylcarbonyl)piperazin-1-yl]azetidin-1-yl}carbonyl)-1,3-benzoxazole]
[1]
  2-AG accumulation, % of vehicle control at 10 µM: 293%
[3]; [5]
  Kd: 0.197 µM

## Cc1nc(-c2ccc(Cl)cc2)sc1C(=O)N1CC(N2CCN(C(=O)c3cscn3)CC2)C1 [Cpd 1384]
[1]
  2-AG accumulation, % of vehicle control at 1 µM: 313%
[3]; [4]
  Kd: 0.061 µM

## O=C(c1nccs1)N1CCN(C2CN(C(=O)c3ccc(-c4ccccc4)cc3F)C2)CC1 [Cpd 1405, 1-{1-[(3-Fluorobiphenyl-4-yl)carbonyl]azetidin-3-yl}-4-(1,3-thiazol-2-ylcarbonyl)piperazine]
[1]
  2-AG accumulation, % of vehicle control at 1 µM: 197%
[3]; [5]
  Kd: 0.002 µM

## Cc1cc(C(=O)N2CC(N3CCN(C(=O)c4cscn4)CC3)C2)ccc1-c1ccccc1 [Cpd 1406]
[1]
  2-AG accumulation, % of vehicle control at 1 µM: 169%
[3]; [5]
  Kd: 0.029 µM
